From US20250282797A1, “CRYSTALLINE FORM OF FGFR4 INHIBITOR AND USE THEREOF” (CSPC ZHONGQI PHARMACEUTICAL TECHNOLOGY (SHIJIAZHUANG) CO., …, priority 2022, published 2025)

What was measured:
FGFR4 = FGFR4 (Homo sapiens, UniProt P22455); assay: FGFR4 kinase activity inhibition assay (Caliper mobility shift); format: biochemical
Experimental: 1. FGFR4 Kinase Activity Inhibition Assay
The FGFR4 protein kinase activity was determined by using the Caliper mobility shift assay technology. The compound was dissolved in DMSO and then diluted with a kinase buffer, and 5 μL of the compound (10% DMSO) at a 5-fold final reaction concentration was added to a 384-well plate. 10 μL of a 2.5-fold enzyme (FGFR4) solution was added, and then the mixture was incubated at room temperature for 10 min. 10 μL of a 2.5-fold substrate (FAM-labeled peptide and ATP) solution was added. The mixture was incubated at 28° C. for 30-60 min, and then 25 μL of a terminating solution was added to terminate the reaction. Conversion rate data were read on Caliper EZ Reader II (Caliper Life Sciences). The conversion rate was converted into inhibition data date (% inhibition rate=(max−sample conversion rate)/(max−min)×100), wherein max referred to the conversion rate of the DMSO control, and min referred to the conversion rate of the enzyme-free control. The concentration and inhibition rate of the compound were used as the abscissa and ordinate to plot the curve, and the XLFit Excel Add-in version 4.3.1 software was used to fit the curve and calculate the IC50 value.

[1] = Pharmacokinetic study in rats; format: in vivo, SD rats; conditions: rat
Excerpt: Test Example 6: Pharmacokinetic Study of Compound of Formula B in Rats
Assay drug: the compound of formula B obtained in Preparation Example 1.
Instrument: LC-MS/MS-13 (TQ5500, Triple quad), with the operation software of Xcalibur2.0.7 (Thermo Fisher Scientific, USA); LC-10ADvp liquid chromatography system (Shimadzu, Japan); Shimadzu LC-20AD liquid chromatography pump; Shimadzu CBM-20A system controller; Shimadzu CTO-20A column oven; and SIL-20AC autosampler (Shimadzu, Japan). Chromatographic column: Agilent Zorbax SB-CN 3.5 u 100×2.1 mm; column temperature: 40° C.; mobile phase A: 0.1% aqueous formic acid solution; mobile phase B: a 0.1% solution of formic acid in acetonitrile; flow rate: 0.60 mL/min. The gradient elution was performed as follows: from 0 to 0.5 min, the mobile phase B was increased from 1% to 90%; from 0.5 to 1.2 min, 90% of the mobile phase B was maintained; starting from 1.21 min, the mobile phase B was changed back to 1%; and elution was stopped at 1.60 min.
Animals: 6 male SD rats were supplied by Shanghai Sippe-Bk Lab Animal Co., Ltd. The body weight range was 180-220 g. After purchase, the rats were bred in the laboratory of the experimental animal center for 2 days for later use. The rats were fasted 10-14 h before administration and 4 h after administration, and given ad libitum access to water during the assay. The rats were randomly divided into two groups, with 3 rats in each group. One group was intravenously injected, and the other group was intragastrically administered.
Preparation of intragastric administration solution: the compound of formula B (4.85 mg) was precisely weighed out, and a mixed aqueous solution (9.70 mL) containing 0.5% methylcellulose and 0.4% Tween-80 was added, followed by sonication at room temperature to prepare a 0.5 mg/mL suspension. Preparation of intravenous injection solution: the compound of formula B (2.79 mg) was precisely weighed out, and DMSO (21 μL), PEG200 (2.79 mL), and normal saline (4.164 mL) were added to prepare a 0.4 mg/mL solution.
Blood was collected in the intragastric administration group about 0.25 h before administration and 0.25 h, 0.5 h, 1 h, 1.5 h, 2 h, 4 h, 6 h, 8 h, 12 h, and 24 h after administration. Blood was collected in the intravenous administration group about 0.25 h before administration and 0.083 h, 0.25 h, 0.5 h, 0.75 h, 1 h, 2 h, 4 h, 8 h, 12 h, and 24 h after administration. The blood was collected from the jugular vein or other venipuncture at 0.25 mL/time point and anticoagulated with EDTA-K2 or EDTA-K3. The collected blood was placed on the ice. After the blood samples were collected, plasma was separated by centrifugation (centrifugation conditions: 6800 g/min, 6 min, 2-8° C.). The collected plasma samples were stored in a refrigerator at −80° C. for testing prior to analysis.
The compound of the formula B was accurately weighed out and formulated into different concentrations, and quantitative analysis was performed on a mass spectrometer to establish a standard curve. The concentration of the compound of formula B in the plasma described above was then measured to obtain the concentrations of the compound of formula B at different time points. All the measured data were collected and processed by relevant software, and pharmacokinetic parameters (mainly including kinetic parameters Tmax, T1/2, Cmax, AUC0-t, etc.) were calculated by adopting a statistical moment method. […]

Huh7 cell = assay: Inhibition assay on Huh-7 tumor cell proliferation (CTG); format: cell-based; conditions: Homo sapiens, 72 h or 168 h drug treatment
Experimental: 2. Inhibition Assay of Compound on Huh-7 Tumor Cell Proliferation
An Huh7 cell suspension was adjusted to 5×10e4 cells/mL or 2×10e4 cells/mL with DMEM+2 mM Glutamine+10% FBS medium. The cell suspension (100 μL) was added to each well of a 96-well cell culture plate at a final cell concentration of 5000 cells/well (72 h) or 2000 cells/well (168 h). The test compound was dissolved in DMSO as a 10 mmol stock solution. Compounds at 200× final concentration were prepared using the stock solution and DMSO, and 3×serial dilutions were prepared and diluted 20-fold with the medium. Finally, 10 μL of the corresponding 10-fold solution was added to each well of each cell strain, a single well for each drug concentration. […] After 72 h or 168 h of drug treatment, 100 μL of a CTG solution which was pre-melted and equilibrated to room temperature was added to each well according to CTG operation instructions, and the solution was mixed well using a microplate shaker for 2 min, left to stand at room temperature for 10 min, and measured for chemiluminescence signal values using an EnSpire plate reader. The cell survival rate was calculated using the following formula: (Vsample−Vblank)/(Vvehicle control−Vblank)×100%, wherein Vsample was the reading of the drug treatment group, Vvehicle control was the average value of the solvent control group, and Vblank was the average value of the blank control well. […]

[2] = male, SD, plasma, iv, intravenously injected, 2.0 mg/kg
[3] = male, SD, plasma, po, intragastrically administered, 5 mg/kg

Chain of FGFR4 (P22455 22-802): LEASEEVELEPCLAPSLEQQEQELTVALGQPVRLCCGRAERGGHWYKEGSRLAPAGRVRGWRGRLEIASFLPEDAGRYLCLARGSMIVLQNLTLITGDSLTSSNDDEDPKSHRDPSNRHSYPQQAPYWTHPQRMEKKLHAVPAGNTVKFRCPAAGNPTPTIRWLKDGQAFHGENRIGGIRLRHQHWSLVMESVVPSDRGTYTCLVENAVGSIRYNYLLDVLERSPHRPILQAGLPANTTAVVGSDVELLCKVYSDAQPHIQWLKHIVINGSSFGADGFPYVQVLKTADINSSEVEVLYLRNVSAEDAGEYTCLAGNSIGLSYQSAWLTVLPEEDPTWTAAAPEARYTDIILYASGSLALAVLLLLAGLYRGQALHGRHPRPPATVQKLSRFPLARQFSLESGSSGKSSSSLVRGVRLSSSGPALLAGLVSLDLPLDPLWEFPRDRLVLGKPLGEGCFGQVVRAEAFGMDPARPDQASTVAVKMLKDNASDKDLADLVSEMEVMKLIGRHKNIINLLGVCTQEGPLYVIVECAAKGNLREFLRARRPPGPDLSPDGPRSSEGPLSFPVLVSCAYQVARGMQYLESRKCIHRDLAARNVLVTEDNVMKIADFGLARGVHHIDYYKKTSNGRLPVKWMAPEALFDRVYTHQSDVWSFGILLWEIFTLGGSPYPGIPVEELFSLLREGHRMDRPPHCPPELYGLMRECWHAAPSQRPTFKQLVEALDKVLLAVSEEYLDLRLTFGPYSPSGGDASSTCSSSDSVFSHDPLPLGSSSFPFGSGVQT

IC50 (FGFR4): < 5 nM | AUC(0-t) [1, 2]: 3980 ng·h/mL | clearance [1, 2]: 8.63 mL/min/kg | half-life [1, 2]: 1.88 h | bioavailability ([1]; male, SD, plasma, oral, intragastric 5 mg/kg vs intravenous 2.0 mg/kg, read-out: absolute bioavailability): 48.6% | AUC(0-t) [1, 3]: 4840 ng·h/mL | Cmax [1, 3]: 1220 ng/mL | half-life [1, 3]: 1.95 h | Tmax ([1]; male, SD, plasma, po, intragastrically administered, 5 mg/kg, read-out: time at which the plasma concentration reached the peak value (Tmax)): 2.67 h | volume distribution ([1]; intravenously injected, 2.0 mg/kg): 0.883 L/kg | IC50 (Huh7 cell): < 10 nM
Structure (SMILES): N#Cc1cnc(NC(=O)N2CCCc3cc(CN4CCN5CCC[C@H]5C4=O)c(C=O)nc32)cc1NC1CC1 [compound of formula B]
